Experimental findings from patent US9809562B2, “NAT10 modulators for treating or preventing laminopathies, aging and cancer” (CAMBRIDGE ENTERPRISE LIMITED, priority 2014, dated 2017) are described below.

Assay [1] relates to cells derived from patients with Emery-Dreifuss muscular dystrophy (EDMD). As to the kind of experiment: γH2AX in Emery-Dreifuss muscular dystrophy cells. It counts as cell-based, human. The source says: FIG. 12: Remodelin improves global cellular fitness of HGPS cells. A) NAT10 depletion in normal fibroblasts and HGPS AG11498 cells observed by western blotting, and showing that siNAT10 has no effect on Lamin A/C expression and processing. B) IF images showing nuclear shape improvement and decreased numbers of γH2AX foci in HGPS cells upon Remodelin treatment. Scale bars: 10 μm. C) Western Blotting analysis showing that Remodelin decreases γH2AX levels in both HGPS cell lines tested. D) IF images showing nuclear shape improvement and decreased intensity of γH2AX staining in Emery-Dreifuss muscular dystrophy cells (EDMD) upon Remodelin treatment. Scale bars: 10 μm. E) Western Blotting analysis showing that Remodelin decreases γH2AX levels in EDMD. F) Western blotting analysis showing the effect of Remodelin on the p53 and DNA damage signalling pathways in HGPS AG11498 cells. G) Representative IF images of H3K9me3 or SUN1 patterns quantified in H). Scale bars: 20 μm. […]
Total cell extracts were prepared by scraping cells in SDS lysis buffer (4% SDS, 20% glycerol, and 120 mM Tris-HCl, pH 6.8), boiling for 5 minutes at 95° C., followed by 10 strokes through a 25-gauge needle. […] Detection and quantification was performed with an imager (Odyssey; LI-COR Biosciences). […]

In assay [2] the test system is HGPS cells. As to the kind of experiment: Proliferation assay of HGPS cells (IncuCyte). It counts as cell-based, human. Conditions: Remodelin 1 μM. The protocol: HGPS cells were plated at the same number in 24 well dishes. Next day, Remodelin (1 μM) or small molecule Compound 2 (1 to 10 μM), were added to the wells and plates were transferred into an IncuCyte microscope (Essen BioScience). Phase contrast pictures were acquired every 2 hours over several days. Percentage of cell confluence was calculated by the Cell Player integrated software (Essen BioScience) and analysed with GraphPad Prism® software.

Assay [3] concerns tubulin in U2OS cells. Description: Analysis of soluble or polymerised tubulin. It counts as cell-based, human. Conditions: 5 μM Remodelin 16 hours. How it is done: U2OS cells pre-treated with 5 μM Remodelin for 16 hours or with 10 μM nocodazole for 8 hours, were lysed in MT Stabilization Buffer (MSB) (85 mM PIPES [pH 6.9], 1 mM EGTA, 1 mM MgCl2, 2M glycerol, 0.5% Triton with 4 μg/ml Taxol). Lysates were kept at 4° C. for 2 minutes and then centrifuged for 10 minutes at 13,000 rpm. Supernatants, representing the soluble fraction of proteins, were transferred to new tubes, and Laemmli buffer was added. Pellets, representing the polymerized fraction of proteins, were washed once in MSB without Triton, and then resuspended in Laemmli buffer. Equal amounts of lysate were loaded on a gradient gel.

The test system of assay [4] is prostate 22RV1 cancer cells. Description: Matrigel invasion assay. Conditions: 50 μM. It counts as cell-based, human. The protocol: FIG. 15: Compound 2 inhibits the proliferation, migration and invasion of cancer cells with low Lamin A/C expression. […] C) Quantification of transwell migration assays and matrigel invasion assays from the indicated low expressing cancer cell lines after treatment with 50 μM of compound 2.

Assay [5] concerns LMNA KO U2OS cells. As to the kind of experiment: Global protein translation by HPG incorporation (FACS), LMNA KO. It is filed as cell-based, human. As to conditions: 24 h treatment, 1 h HPG. The protocol: U2OS cells expressing wild type or KO LMNA were treated with Compound 2 for 24 h and incubated for 1 h with the clickable methionine analogue HPG to measure global protein translation. HPG was then clicked with an Alexa fluor 488 and global fluorescence intensity was quantified by FACS on 10 000 cells.

Assay [6] deals with tissues from Lmna^G609G/G609G mice. As to the kind of experiment: γH2AX relative to total H2AX in mouse tissues (western blot). It is filed as in vivo. How it is done:
Tissues from wild type mice or Lmna^G609G/G609G mice treated with Compound 2 were harvested and proteins were extracted and loaded on a western blot which is shown in FIG. 26. Lmna^G609G/G609G mice indeed show progerin expression (readily detectable mainly in the Lung tissues), confirming their genotype. DNA damage was assessed by the DNA double strand break marker γH2AX that was quantified using a Licor Odyssey Imaging system.

In assay [7] the target is T1, NAT10 (Homo sapiens, UniProt Q9H0A0).
T1 construct: endogenous in cells; host or cells: U2OS
Description: Clickable small molecule pull-down from live cells, western blotting. It counts as binding. As to conditions: pre-incubated in live U2OS cells, biotin linker, streptavidin beads. The protocol: Biotinylated Compound 3 and PEG4 biotinylated Compound A were generated in situ from Compounds 2 and 3, pre-incubated in live cells for 2 h prior to adding commercially available PEG4 carboxamide-6-azidohexanyl biotin and click reagents in cell extracts (used in click-pull-down and western blotting validation).
Click reaction reagents were added to the cell lysates as follows: 10 μM biotin azide (PEG4 carboxamide-6-Azidohexanyl Biotin, Life Sciences), 10 mM sodium ascorbate (Sigma-Aldrich), 2 mM CuSO4 (Life Sciences). Click reactions were incubated in the dark for 1 hour at 4° C. with rotation. Streptavidin beads were then incubated for 1 hour and samples were eluted and loaded on a gel as described above, before immunoblotting.

Where a name gives a salt, the structure may show the parent alone.

T1 sequence (Q9H0A0 whole entry): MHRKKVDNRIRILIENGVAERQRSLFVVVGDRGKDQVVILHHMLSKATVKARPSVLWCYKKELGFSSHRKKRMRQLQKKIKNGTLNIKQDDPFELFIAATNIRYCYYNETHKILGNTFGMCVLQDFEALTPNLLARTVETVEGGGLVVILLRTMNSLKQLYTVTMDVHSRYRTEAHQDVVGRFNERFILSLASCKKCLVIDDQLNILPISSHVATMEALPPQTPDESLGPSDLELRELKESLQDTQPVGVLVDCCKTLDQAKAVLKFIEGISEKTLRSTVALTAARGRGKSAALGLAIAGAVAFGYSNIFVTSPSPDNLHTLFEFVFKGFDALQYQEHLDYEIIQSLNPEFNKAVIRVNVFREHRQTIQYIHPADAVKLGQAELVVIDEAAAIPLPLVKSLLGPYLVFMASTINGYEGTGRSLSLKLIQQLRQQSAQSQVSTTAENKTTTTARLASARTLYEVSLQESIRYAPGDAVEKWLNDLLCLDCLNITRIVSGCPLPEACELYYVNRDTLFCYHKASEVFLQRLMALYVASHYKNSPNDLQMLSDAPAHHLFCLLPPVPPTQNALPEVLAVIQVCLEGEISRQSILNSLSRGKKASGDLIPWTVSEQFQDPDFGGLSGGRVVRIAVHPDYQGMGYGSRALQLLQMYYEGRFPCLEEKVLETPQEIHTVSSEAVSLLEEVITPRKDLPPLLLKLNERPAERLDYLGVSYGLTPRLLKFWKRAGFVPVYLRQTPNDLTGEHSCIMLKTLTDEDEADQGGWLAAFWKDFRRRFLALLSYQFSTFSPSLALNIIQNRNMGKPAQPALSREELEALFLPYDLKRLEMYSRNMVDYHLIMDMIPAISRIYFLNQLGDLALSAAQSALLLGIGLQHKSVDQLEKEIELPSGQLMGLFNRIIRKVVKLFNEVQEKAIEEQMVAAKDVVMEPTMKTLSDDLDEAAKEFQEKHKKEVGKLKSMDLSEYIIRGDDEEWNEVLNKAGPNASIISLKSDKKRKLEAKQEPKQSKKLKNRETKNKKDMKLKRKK

As to `N#Cc1ccc(-c2csc(NN=C3CCCC3)n2)cc1` [Compound 1, 4-(4-Cyanophenyl)-2-(2-cyclopentylidenehydrazinyl)thiazole], the “γH2AX levels in EDMD cells” value in assay [1] was “decreased levels of γH2AX”. For the same compound, the “cell proliferation of HGPS cells” value in assay [2] was “enhanced cell proliferation capacity”. For the same compound, the “tubulin assembly into polymers” value in assay [3] was “did not affect Golgi apparatus integrity (FIG. 13C) or tubulin assembly into polymers”.

As for `Clc1ccc(-c2csc(NN=C3CCCC3)n2)cc1` [Compound 2, 4-(4-Chlorophenyl)-2-(2-cyclopentylidenehydrazinyl)thiazole Hydrochloride Salt], in assay [4], the “matrigel invasion of 22RV1 cells” value was “no invasion upon treatment”. Further, the “global protein translation (HPG fluorescence intensity)” value in assay [5] is “strong reduction of global protein translation”. In addition, the “DNA damage (γH2AX relative to total H2AX)” value in assay [6] (heart and lung, treated vs untreated Lmna^G609G/G609G mice) is “clear decrease of DNA damage”; in assay [6] (liver extracts), “No effect”.

As to `C#CCN(N=C1CCCC1)c1nc(-c2ccc(Cl)cc2)cs1` [Compound 3, 4-(4-Chlorophenyl)-2-(2-cyclopentylidene-1-(prop-2-yn-1-yl)hydrazinyl)thiazole], in assay [7], the “retrieval of NAT10 in click pull-down” value is given as “specifically retrieved NAT10”.
